This is an account of results in publication PMC10215143, “D- and N-Methyl Amino Acids for Modulating the Therapeutic Properties of Antimicrobial Peptides and Lipopeptides” (Antibiotics, 2023).

The nature of one data set: in vitro. The note with it: human, 50% (v/v) human serum in phosphate buffer, pH 7.2.
Data set [1] is described as follows: Critical micelle concentration by conductimetry in Milli-Q water. It counts as physicochemical. The following applies: 25 °C. The method, then: On the other hand, acylation confers that the peptide has capacity to self-assemble into nanostructures, resulting in a surfactant-like structure, which may affect the extent of peptide insertion and disruption of bacterial membrane integrity. In this work, the CMC of the lipopeptides was determined by conductimetry in Milli-Q water. All the lipopeptides adopted a micellar assembly with CMC values ranging from 2.0 to 5.7 mM (Table 1). […] This effect appeared to be more important when substitution by an N-methyl amino acid was performed on amino acids located on the non-polar face of the amphipathic helix (CMC values of C10:0-A2(8-NMePhe) = 2.01 mM). For all the lipopeptides, the CMC values remained above the MIC values, which could indicate that these molecules interact with the cell membrane as monomers and, consequently, that this property would not be necessary for antimicrobial activity. This notion is in concordance with reports in the literature on short cationic lipopeptides.
A lipopeptide solution was prepared in Milli Q water, and the specific conductivity of each lipopeptide solution, in a concentration ranging from 0.06 to 18 mg/mL, was measured using a drop conductivity meter (HORIBA, Kyoto, Japan), at 25 °C. Conductivity values were plotted vs. lipopeptide concentration (mS × cm^−1 vs. mg/mL), and the CMC was graphically determined.

For the next data set, the system named is Gram (−) bacteria. The note with it: for MIC Average Bacteria Gram (−): average over Gram (−) strains; for TI Bacteria Gram (−), HC50/MIC average: first value of the cell, a single value holds for HC50 and IC50 (400 µM used); for TI Bacteria Gram (−), IC50/MIC average: second value of the cell, HeLa IC50 based. The protocol:
(§1) The MIC against bacterial strains was determined by the modified broth microtiter dilution method, following the procedures proposed by R.E.W. Hancock Laboratory for testing antimicrobial peptides. The target strains Escherichia coli ATCC 35218, Pseudomonas aeruginosa ATCC 27853, Enterococcus faecalis ATCC 29212, and Staphylococcus aureus ATCC 25923 belong to the American Type Culture Collection (ATCC). The Methicillin-Resistant Staphylococcus aureus BSF FBCB1313 strain (MRSA) was provided by the Clinical Bacteriology Section of FBCB-UNL. All strains were activated by culture for 24 h at 37 °C in Mueller-Hinton Broth (MHB) (Biokar Diagnostics, Cedex, France). Each inoculum was taken and adjusted to a cellular concentration of 5 × 10^5 colony-forming units (CFU)/mL in diluted MHB. All the peptides were dissolved in bovine serum albumin buffer with the addition of 0.01% acetic acid; 100 µL of each inoculum was added to 11 µL of peptide solution in serial 2-fold dilutions and were incubated for 18–24 h at 37 °C. The MIC was the lowest peptide concentration that inhibited visible growth of each bacterial strain. The test was conducted in triplicate.
(§2) The TI is defined as the relationship between the concentration that caused 50% of hemolysis (HC50) or a 50% reduction in HeLa cell viability and the MIC. Thus, higher TI values indicate greater antimicrobial specificity. […] The average MIC for each peptide against different microorganism groups was used to calculate the TI value.

A further data set concerns Gram (+) bacteria. The following applies: for MIC Average Bacteria Gram (+): average over Gram (+) strains; for TI Bacteria Gram (+), HC50/MIC average: first value of the cell, a single value holds for HC50 and IC50 (400 µM used); for TI Bacteria Gram (+), IC50/MIC average: second value of the cell, HeLa IC50 based. The protocol: as §1, §2
For data set [2] the following is noted: at 200 μM; cited from earlier work.
A further data set has as its system S. aureus ATCC 25923. The class given is cell-based, Staphylococcus aureus. The note with it: ATCC 25923, 24 h. The protocol:
(§3) The test was conducted in triplicate.

The subject of another data set is E. faecalis ATCC 29212. It counts as cell-based, Enterococcus faecalis. The following applies: ATCC 29212, 24 h. The protocol: as §3
Another data set is described as follows: Hemolysis assay. The class given is cell-based, human. The note with it: human, erythrocytes (red blood cells); at higher concentrations (400 μM). The method, then:
(§4) Hemolytic activity was determined using red blood cells and the hemoglobin released was measured at 405 nm. The percentage of hemolysis corresponding to the synthetic compounds is shown in Figure 1 while the HC50 values are provided in Table 3. […] Substitutions by N-methyl and D-amino acids reduced the hemolytic activity of the peptides and lipopeptides. […] For all the peptides and most of the lipopeptides, the HC50 values exceeded 400 μM. Indeed, the HC50 values were lower only for C10:0-A2(9-NMeLys) and C10:0-A2, which were around 300 and 200 μM, respectively.
(§5) Erythrocyte lysis was determined using the following previously optimized protocols. Human erythrocytes from a healthy voluntary donor were isolated by centrifugation (3000 rpm for 10 min) after washing three times with Physiological Solution (PS). Erythrocyte solutions were prepared at a concentration of 0.4% (v/v) in PS. Test tubes containing 200 µL of erythrocyte solution were incubated at 37 °C for 60 min with 200 µL of peptide solution at concentrations ranging from 6.25 to 400 µM. After centrifugation at 3000 rpm for 5 min, supernatant absorbance was measured at 405 nm. Lysis induced by 1% Triton X-100 was taken as a 100% reference value.

The subject of the next data set is Human erythrocytes. Nature of the data set: Hemolysis assay. The note with it: human erythrocytes 0.4% (v/v), 37 °C, 60 min, 6.25 to 400 µM. The class given is cell-based. The protocol: as §4, §5
The test system of a further data set is HeLa cells. The following applies: for IC50: 24 h. The protocol:
We assessed the cytotoxicity of the compounds synthesized using HeLa cells.
The 3–4,5-dimethylthiazol-2,5-biphenyl tetrazolium bromide (MTT) cell viability assay was used to assess the cytotoxic activity of synthetic compounds against the human HeLa line. HeLa cells were seeded in 96-well plates at 1 × 10^5 cells/well, in which the peptide solution was added at different concentrations (3.125–400 μM) for 24 h of incubation. Next, MTT reagent (Sigma-Aldrich, St. Louis, MO, USA) was added, and the cells were incubated for 2 h. Then, 100 μL of dimethylsulfoxide (DMSO) was added to each well to dissolve formazan crystals, and the plates were read at 595 nm.

The next data set deals with C. tropicalis DBFIQ 3. The class given is cell-based, Candida tropicalis. The note with it: DBFIQ 3, 24 h. The protocol:
(§6) Each inoculum was taken and the cellular concentration was adjusted to 2 × 10^3 CFU/mL in Sabouraud Dextrose Broth (SDB) (Biokar Diagnostics, Cedex, France). Next, 50 µL of these inocula was added to 50 µL of peptide solution in serial 2-fold dilutions. […] […] The test was conducted in triplicate.

Another data set deals with E. coli ATCC 35218. It counts as cell-based, Escherichia coli. The note with it: ATCC 35218, 24 h. The method, then:
as §3

For data set [3], the system named is S. aureus RM * SA1 (Methicillin-resistant Staphylococcus aureus). The following applies: S. aureus RM * SA1 (MRSA).
A further data set has as its system P. aeruginosa ATCC 27853. It counts as cell-based, Pseudomonas aeruginosa. The note with it: ATCC 27853, 24 h. The method, then: as §3
For a further data set, the system named is C. albicans PEEC 2. It counts as cell-based, Candida albicans. The note with it: PEEC 2, 24 h. The method, then: as §6
The test system of data set [4] is Yeast. The following applies: for MIC Average Yeast: 24 h; for TI Yeast, HC50/MIC average: first value of the cell, a single value holds for HC50 and IC50 (400 µM used); for TI Yeast, IC50/MIC average: second value of the cell, HeLa IC50 based. The protocol: Each inoculum was taken and the cellular concentration was adjusted to 2 × 10^3 CFU/mL in Sabouraud Dextrose Broth (SDB) (Biokar Diagnostics, Cedex, France). Next, 50 µL of these inocula was added to 50 µL of peptide solution in serial 2-fold dilutions. […] The MIC was considered the lowest peptide concentration that inhibited visible growth of each yeast strain. The test was conducted in triplicate.
as §2

For data set [5], the system named is Yeast. The note with it: cited from earlier work.

Values after ≈ are worked out from the molar mass of the structure shown. Read-outs that look alike come from different tables or passages of the source. Where a SMILES comes first, the peptide text is derived from it. Where no end group is shown, it is not given here. The star is where a group is joined. Decanoyl = CCCCCCCCCC(=O)* Where only a bound is given, the exact number is not on record here.

For orientation: fraction remaining means the share of the starting amount still present when the sample was taken. Lower therefore signals a greater loss. As a reminder, the MIC is the lowest concentration found to suppress growth. One may read the IC50 as the midpoint of a concentration-inhibition curve.

Experimental for in vitro: A 50% (v/v) human serum solution in phosphate buffer (pH: 7.2) was added to the peptide solution (concentration: 2 mg/mL) and incubated for 8 h at 37 °C. Aliquots were taken at different time points (0, 30, 60, 120, 240, 360, and 480 min) and serum proteins were immediately precipitated with a mixture of ACN-water-TFA (89:10:1). They were kept at 4 °C for 45 min and then centrifuged for 15 min at 10,000 rpm. The supernatants were then analyzed by HPLC-RP using a C18 analytical column (Beckman, Indianapolis, IN, USA). A linear gradient from 5% to 50% of ACN in H2O containing 0.1% TFA was used, at a flow rate of 0.8 mL/min. Absorbance was measured at 220 nm. […] The test was conducted in duplicate.

`CCCCCCCCCC(=O)N[C@H](C(=O)N[C@@H](CCCCN)C(=O)N[C@@H](CCC(N)=O)C(=O)N[C@H](C(=O)N[C@@H](CCCCN)C(=O)N[C@@H](CCCCN)C(=O)N[C@@H](CC(C)C)C(=O)N[C@@H](Cc1ccccc1)C(=O)N[C@@H](CCCCN)C(=O)N[C@@H](CCCCN)C(N)=O)C(C)C)[C@@H](C)CC` [C10:0-A2, C10:0-IKQVKKLFKK-NH2] (Decanoyl-IKQVKKLFKK-NH2) came in with a fraction remaining at 1 h in the data set “in vitro” of approximately 20%. The compound also came in with a CMC in data set [1] of 5.74 mM. Further, the “MIC Average Bacteria Gram (−)” value with Gram (−) bacteria turned out to be 1.4 µM (≈ 1.98 µg/mL). In addition, the “TI Bacteria Gram (−), HC50/MIC average” value in the data set with Gram (−) bacteria was 144.9. Further, the “TI Bacteria Gram (−), IC50/MIC average” value in the data set on Gram (−) bacteria was found to be 23.3. Besides, in the data set on Gram (+) bacteria, the “MIC Average Bacteria Gram (+)” value came to 1.9 µM (≈ 2.68 µg/mL). Besides, the “TI Bacteria Gram (+), HC50/MIC average” value in the data set with Gram (+) bacteria turned out to be 106.8. Further, in the data set on Gram (+) bacteria, the “TI Bacteria Gram (+), IC50/MIC average” value was 17.2. The hemolysis result in data set [2] was “around 50%”. In addition, the MIC with S. aureus ATCC 25923 is listed as 1.4 µM (≈ 1.98 µg/mL); in the data set with E. faecalis ATCC 29212, 1.4 µM (≈ 1.98 µg/mL); against C. tropicalis DBFIQ 3, 90.6 µM (≈ 128 µg/mL); against E. coli ATCC 35218, 1.4 µM (≈ 1.98 µg/mL); in data set [3] it was 2.8 µM (≈ 3.96 µg/mL); against P. aeruginosa ATCC 27853 it was 1.4 µM (≈ 1.98 µg/mL). In addition, the MIC against C. albicans PEEC 2 and in the data set on Yeast [5] (yeast) was 90.6 µM (≈ 128 µg/mL) in each case. In the data set “Hemolysis assay”, the hemolysis at 60 min, 400 µM was approximately 45%. The “HC50 ± SD” value in the data set with Human erythrocytes is reported as 202.9 ± 17.5 µM. 32.6 ± 2.49 µM corresponded to half-maximal inhibition in the data set with HeLa cells (IC50). Further, in the data set on HeLa cells (HeLa cells, MTT), the “reduction of HeLa viability” value is “more than 60%”. Also, in the data set on Yeast [4], the “MIC Average Yeast” value turned out to be 90.6 µM (≈ 128 µg/mL). The “TI Yeast, HC50/MIC average” value with Yeast [4] is reported as 2.2. In addition, the “TI Yeast, IC50/MIC average” value in the data set with Yeast [4] is recorded as 0.4.

The compound “KLFKKLFKKLFK-NH2 [TA4, KLFKKLFKKLFK-NH2]” displayed a fraction remaining at 1 h in “in vitro” of approximately 40%. Further, in the data set with Gram (−) bacteria, the “MIC Average Bacteria Gram (−)” value is 3.9 µM. For the same compound, in the data set on Gram (−) bacteria, the “TI Bacteria Gram (−), HC50/MIC average” value is 102.6. The “TI Bacteria Gram (−), IC50/MIC average” value in the data set on Gram (−) bacteria stood at 11.9. Further, the “MIC Average Bacteria Gram (+)” value in the data set with Gram (+) bacteria was 6.0 µM. The “TI Bacteria Gram (+), HC50/MIC average” value in the data set on Gram (+) bacteria came to 66.7. In the data set with Gram (+) bacteria, the “TI Bacteria Gram (+), IC50/MIC average” value is on record as 7.7. Further, in data set [2], the hemolysis result is recorded as “around 40%”. In addition, the MIC turned out to be 2.6 µM with S. aureus ATCC 25923; 5.1 µM with E. faecalis ATCC 29212; 40.8 µM with C. tropicalis DBFIQ 3; 5.1 µM with E. coli ATCC 35218; 10.2 µM in [3]; 2.6 µM with P. aeruginosa ATCC 27853. In addition, the MIC against C. albicans PEEC 2 and in the data set on Yeast [5] (against yeast) was 40.8 µM each time. The same compound gave a hemolysis at 60 min, 400 µM in “Hemolysis assay” of approximately 65%. The “HC50 ± SD” value in the data set on Human erythrocytes is more than 400 µM. Further, the IC50 in the data set with HeLa cells turned out to be 46.4 ± 10.1 µM; in the data set with HeLa cells (read-out: IC50 ± SD, HeLa cells, MTT, 3.125–400 μM), 46 µM. Moreover, in the data set with HeLa cells (HeLa cells, MTT), the “reduction of HeLa viability” value is “more than 60%”. Besides, the “MIC Average Yeast” value against Yeast [4] is recorded as 40.8 µM. In the data set on Yeast [4], the “TI Yeast, HC50/MIC average” value was determined as 9.8. In the data set with Yeast [4], the “TI Yeast, IC50/MIC average” value worked out at 1.1.
